Measured values as given in US10881106B2, “Herbicidal pyridazinone compounds” (SYNGENTA PARTICIPATIONS AG, priority 2016, dated 2021).

Key:
Format in all cases: in vivo
Zea mays (ZEAMX) = experiment: Post-emergence glasshouse herbicide test, percentage damage to crop plant; settings: POST Application, 125 g/ha, evaluated after 14 days; crop (corn)
Procedure: (§1) Seeds of a variety of test species were sown in standard soil in pots (Amaranthus retoflexus (AMARE), Abutilon theophrasti (ABUTH), Digitaria sanguinalis (DIGSA), Setaria faberi (SETFA) and Zea mays (ZEAMX). After cultivation for 10 days under controlled conditions in a glasshouse (at 24/16° C., day/night; 14 hours light; 65% humidity), the plants were sprayed with an aqueous spray solution derived from the formulation of the technical active ingredient in 0.6 ml acetone and 45 ml formulation solution containing 10.6% Emulsogen EL (Registry number 61791-12-6), 42.2% N-methyl pyrrolidone, 42.2% dipropylene glycol monomethyl ether (CAS RN 34590-94-8) and 0.2% X-77 (CAS RN 11097-66-8). The test plants were then grown in a glasshouse under controlled conditions in a glasshouse (at 24/16° C., day/night; 14 hours light; 65% humidity) and watered twice daily. After 14 days the test is evaluated for the percentage damage caused to the plant. The biological activities are shown in the following table on a five point scale (5=80-100%; 4=60-79%; 3=40-59%; 2=20-39%; 1=0-19%).

[1] = test system: Digitaria sanguinalis (DIGSA); experiment: Post-emergence glasshouse herbicide test, percentage damage to plant; settings: POST Application, 125 g/ha, evaluated after 14 days
Procedure: as §1

Setaria faberi (SETFA) = experiment: as above; settings: POST Application, 125 g/ha, evaluated after 14 days
Procedure: as §1

[2] = test system: Amaranthus retoflexus (AMARE); experiment: as above; settings: POST Application, 125 g/ha, evaluated after 14 days
Procedure: as §1

[3] = test system: Abutilon theophrasti (ABUTH); experiment: as above; settings: POST Application, 125 g/ha, evaluated after 14 days
Procedure: as §1

In the case of `CN(C)C(=O)CCn1nc(C2CC2)cc(C(=O)C2=C([O-])CCCC2=O)c1=O.[Na+]` [Compound 1.016], the “ZEAMX percentage damage caused to the plant (five point scale)” value (from here on “ZEAMX percentage damage caused”) (Zea mays (ZEAMX)) was 1 (1=0-19%), the “DIGSA percentage damage caused to the plant (five point scale)” value (shortened to “DIGSA percentage damage caused”) [1] was 5 (5=80-100%) and the “SETFA percentage damage caused to the plant (five point scale)” value (“SETFA percentage damage caused” below) (Setaria faberi (SETFA)) was 4 (4=60-79%). The “AMARE percentage damage caused to the plant (five point scale)” value (from here on “AMARE percentage damage caused”) [2] was 5 (5=80-100%) and the “ABUTH percentage damage caused to the plant (five point scale)” value (shortened to “ABUTH percentage damage caused”) [3] was 5 (5=80-100%).

For `Cc1cc(C(=O)C2=C([O-])CCCC2=O)c(=O)n(CC(F)(F)C(=O)N(C)C)n1.[Na+]` [Compound 1.018], the “ZEAMX percentage damage caused” value (Zea mays (ZEAMX)) was 1 (1=0-19%), the “DIGSA percentage damage caused” value [1] was 5 (5=80-100%) and the “SETFA percentage damage caused” value (Setaria faberi (SETFA)) was 5 (5=80-100%). The “AMARE percentage damage caused” value [2] was 5 (5=80-100%) and the “ABUTH percentage damage caused” value [3] was 5 (5=80-100%).

`Cc1cc(C(=O)C2=C([O-])CC(C)CC2=O)c(=O)n(CCC(=O)N(C)CC(F)(F)F)n1.[Na+]` (stereo not shown) [Compound 1.020] was tested, and the “ZEAMX percentage damage caused” value (Zea mays (ZEAMX)) was 1 (1=0-19%), the “DIGSA percentage damage caused” value [1] was 5 (5=80-100%) and the “SETFA percentage damage caused” value (Setaria faberi (SETFA)) was 5 (5=80-100%). The “AMARE percentage damage caused” value [2] was 4 (4=60-79%) and the “ABUTH percentage damage caused” value [3] was 5 (5=80-100%).

In the case of `CCN(CC)C(=O)OCCn1nc(C)cc(C(=O)C2=C([O-])CCCC2=O)c1=O.[Na+]` [Compound 1.021], the “ZEAMX percentage damage caused” value (Zea mays (ZEAMX)) was 1 (1=0-19%), the “DIGSA percentage damage caused” value [1] was 5 (5=80-100%) and the “SETFA percentage damage caused” value (Setaria faberi (SETFA)) was 5 (5=80-100%). The “AMARE percentage damage caused” value [2] was 4 (4=60-79%) and the “ABUTH percentage damage caused” value [3] was 5 (5=80-100%).

With `CCN(C)C(=O)OCCn1nc(C)cc(C(=O)C2=C([O-])CCCC2=O)c1=O.[Na+]` [Compound 1.022] the “ZEAMX percentage damage caused” value (Zea mays (ZEAMX)) was 1 (1=0-19%), the “DIGSA percentage damage caused” value [1] was 5 (5=80-100%) and the “SETFA percentage damage caused” value (Setaria faberi (SETFA)) was 5 (5=80-100%). The “AMARE percentage damage caused” value [2] was 5 (5=80-100%) and the “ABUTH percentage damage caused” value [3] was 5 (5=80-100%).

`Cc1cc(C(=O)C2=C([O-])CCCC2=O)c(=O)n(CCOC(=O)N(C)CC(F)(F)F)n1.[Na+]` [Compound 1.023] was tested, and the “ZEAMX percentage damage caused” value (Zea mays (ZEAMX)) was 1 (1=0-19%), the “DIGSA percentage damage caused” value [1] was 5 (5=80-100%) and the “SETFA percentage damage caused” value (Setaria faberi (SETFA)) was 5 (5=80-100%). The “AMARE percentage damage caused” value [2] was 3 (3=40-59%) and the “ABUTH percentage damage caused” value [3] was 3 (3=40-59%).

`Cc1cc(C(=O)C2=C([O-])CCCC2=O)c(=O)n(CCOC(=O)N2CCCC2)n1.[Na+]` [Compound 1.024] was tested, and the “ZEAMX percentage damage caused” value (Zea mays (ZEAMX)) was 1 (1=0-19%), the “DIGSA percentage damage caused” value [1] was 5 (5=80-100%) and the “SETFA percentage damage caused” value (Setaria faberi (SETFA)) was 5 (5=80-100%). The “AMARE percentage damage caused” value [2] was 4 (4=60-79%) and the “ABUTH percentage damage caused” value [3] was 2 (2=20-39%).

For `Cc1cc(C(=O)C2=C([O-])CCCC2=O)c(=O)n(CCOC(=O)N2CCOCC2)n1.[Na+]` [Compound 1.025], the “ZEAMX percentage damage caused” value (Zea mays (ZEAMX)) was 1 (1=0-19%), the “DIGSA percentage damage caused” value [1] was 5 (5=80-100%) and the “SETFA percentage damage caused” value (Setaria faberi (SETFA)) was 5 (5=80-100%). The “AMARE percentage damage caused” value [2] was 5 (5=80-100%) and the “ABUTH percentage damage caused” value [3] was 5 (5=80-100%).

In the case of `Cc1cc(C(=O)C2=C([O-])CC(C)CC2=O)c(=O)n(CCOC(=O)N(C)C)n1.[Na+]` (stereo not shown) [Compound 1.026], the “ZEAMX percentage damage caused” value (Zea mays (ZEAMX)) was 1 (1=0-19%), the “DIGSA percentage damage caused” value [1] was 5 (5=80-100%) and the “SETFA percentage damage caused” value (Setaria faberi (SETFA)) was 5 (5=80-100%). For the same molecule, the “AMARE percentage damage caused” value [2] was 5 (5=80-100%) and the “ABUTH percentage damage caused” value [3] was 5 (5=80-100%).

In the case of `Cc1cc(C(=O)C2=C([O-])CC(C)(C)CC2=O)c(=O)n(CCOC(=O)N(C)C)n1.[Na+]` [Compound 1.027], the “ZEAMX percentage damage caused” value (Zea mays (ZEAMX)) was 1 (1=0-19%), the “DIGSA percentage damage caused” value [1] was 5 (5=80-100%) and the “SETFA percentage damage caused” value (Setaria faberi (SETFA)) was 5 (5=80-100%). For the same molecule, the “AMARE percentage damage caused” value [2] was 5 (5=80-100%) and the “ABUTH percentage damage caused” value [3] was 5 (5=80-100%).

`Cc1cc(C(=O)C2=C([O-])CCCC2=O)c(=O)n(C(C)C(=O)N(C)C)n1.[Na+]` (stereo not shown) [Compound 1.029] was tested, and the “ZEAMX percentage damage caused” value (Zea mays (ZEAMX)) was 1 (1=0-19%), the “DIGSA percentage damage caused” value [1] was 5 (5=80-100%) and the “SETFA percentage damage caused” value (Setaria faberi (SETFA)) was 5 (5=80-100%). For the same molecule, the “AMARE percentage damage caused” value [2] was 5 (5=80-100%) and the “ABUTH percentage damage caused” value [3] was 5 (5=80-100%).
